Earlier results as cited in US20240042038A1, “FORMULATIONS OF CABAZITAXEL” (Zhuhai Beihai Biotech Co., Ltd., priority 2020, published 2024).

solubility in alcohol: soluble
solubility in water: practically insoluble
Compound: CO[C@H]1C(=O)[C@]2(C)[C@@H](OC)C[C@H]3OC[C@@]3(OC(C)=O)[C@H]2[C@H](OC(=O)c2ccccc2)[C@]2(O)C[C@H](OC(=O)[C@H](O)[C@@H](NC(=O)OC(C)(C)C)c3ccccc3)C(C)=C1C2(C)C [Cabazitaxel, cabazitaxel]
